# Data published in ChEMBL document CHEMBL2021794, “Synthesis, σ₁, σ₂-receptors binding affinity and antiproliferative action of new C1-substituted adamantanes” (Bioorg Med Chem, 2012).
# Legend:
# BXPC-3 [1] = assay: Growth inhibition of human BxPC3 cells after 48 hrs by SRB assay; type: functional; settings: BXPC-3, 48 h
# MIA PaCa-2 [2] = assay: Antitumor activity against human MIAPaCa2 cells xenografted in SCID mouse assessed as tumor weight at 70 mg/kg, ip twice a week (reference value: 1225 +/- 308 mg); type: functional; settings: route intraperitoneal
# MIA PaCa-2 [3] = assay: Growth inhibition of human MIAPaCa2 cells after 48 hrs by SRB assay; type: functional; settings: MIA PaCa-2, 48 h; for CC50: read-out: LC50 (the source's name)
# MIA PaCa-2 [4] = assay: Antitumor activity against human MIAPaCa2 cells xenografted in SCID mouse assessed as reduction in tumor volume at 70 mg/kg, ip twice a week; settings: MIA PaCa-2, ip, read-out: INH
# IGROV-1 = assay: Growth inhibition of human IGROV1 cells after 48 hrs by SRB assay; type: functional; settings: IGROV-1, 48 h
# BXPC-3 [5] = assay: Antitumor activity against human BxPC3 cells xenografted in SCID mouse assessed as tumor weight at 17 mg/kg, ip twice a week (reference value: 723 +/- 45 mg); type: functional; settings: route intraperitoneal
# MCF7 = assay: Growth inhibition of human MCF7 cells after 48 hrs by SRB assay; type: functional; settings: MCF7, 48 h; for CC50: read-out: LC50 (the source's name)
# NCI-H460 = assay: Growth inhibition of human NCI-H460 cells after 48 hrs by SRB assay; type: functional; settings: NCI-H460, 48 h
# DU-145 = assay: Growth inhibition of human DU145 cells after 48 hrs by SRB assay; type: functional; settings: DU-145, 48 h
# PC-3 = assay: Growth inhibition of human PC3 cells after 48 hrs by SRB assay; type: functional; settings: PC-3, 48 h
# DMS-114 = assay: Growth inhibition of human DMS114 cells after 48 hrs by SRB assay; type: functional; settings: DMS-114, 48 h
# HUVEC = assay: (§1) Growth inhibition of HUVEC cells after 48 hrs by SRB assay; type: cell-based; settings: human, huvec, 48 h
# [6] = as §1; type: cell-based; settings: human, HUVEC cells
# NCI-H69 = assay: Growth inhibition of human NCI-H69 cells after 48 hrs by SRB assay; type: functional; settings: NCI-H69, 48 h
# HCT-116 = assay: Growth inhibition of human HCT116 cells after 48 hrs by SRB assay; type: functional; settings: HCT-116, 48 h; for CC50: read-out: LC50 (the source's name)
# H69AR = assay: Growth inhibition of human H69AR cells after 48 hrs by SRB assay; type: functional
# U-251 = assay: Growth inhibition of human U251 cells after 48 hrs by SRB assay; type: functional; settings: U-251, 48 h
# SF-295 = assay: Growth inhibition of human SF295 cells after 48 hrs by SRB assay; type: functional; settings: SF-295, 48 h
# [7] = Growth inhibition of human MSC cells after 48 hrs by SRB assay; type: cell-based
# SK-HEP1 = assay: Growth inhibition of human SKHEP1 cells after 48 hrs by SRB assay; type: functional; settings: SK-HEP1, 48 h
# HCT-15 = assay: Growth inhibition of human HCT15 cells after 48 hrs by SRB assay; type: functional; settings: HCT-15, 48 h
# BXPC-3 [8] = assay: Antitumor activity against human BxPC3 cells xenografted in SCID mouse assessed as reduction in tumor volume at 17 mg/kg, ip twice a week; type: functional; settings: BXPC-3, ip, route intraperitoneal
# HL-60(TB) = assay: Growth inhibition of human HL-60(TB) cells after 48 hrs by SRB assay; type: functional; settings: HL-60, 48 h
# OVCAR-5 = assay: Growth inhibition of human OVCAR5 cells after 48 hrs by SRB assay; type: functional; settings: OVCAR-5, 48 h; for CC50: read-out: LC50 (the source's name)
# [9] = Displacement of [3H]BTX-B from Na+ channel site 2 after 60 mins by liquid scintillation spectroscopy
# SF-268 = assay: Growth inhibition of human SF268 cells after 48 hrs by SRB assay; type: functional; settings: SF-268, 48 h
# [10] = Selectivity ratio of IC50 for human sigma-1 receptor to IC50 for rat sigma-2 receptor
# [11] = molecular target: Sigma non-opioid intracellular receptor 1 (Homo sapiens, UniProt Q99720); assay: Displacement of [3H](+)pentazocine from sigma-1 receptor expressed in human Jurkat cell membranes after 2 hrs by liquid scintillation spectroscopy
# Chain of Sigma non-opioid intracellular receptor 1 (Q99720 whole entry): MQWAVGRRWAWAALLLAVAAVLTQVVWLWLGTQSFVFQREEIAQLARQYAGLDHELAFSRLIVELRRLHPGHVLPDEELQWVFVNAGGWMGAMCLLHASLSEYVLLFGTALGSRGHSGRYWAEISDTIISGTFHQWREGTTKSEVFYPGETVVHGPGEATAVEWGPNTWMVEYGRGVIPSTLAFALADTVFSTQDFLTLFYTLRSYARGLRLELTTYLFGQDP
# [12] = Displacement of [3H](+)1-DTG from sigma-2 receptor expressed in rat cerebral cortex membranes after 2 hrs by liquid scintillation spectroscopy; type: cell membranes, Membrane
# [13] = read-out: LC50 (the source's name)
structure (smiles),measurement,setting,value
Nc1ccn([C@@H]2O[C@H](CO)[C@@H](O)C2(F)F)c(=O)n1 [GEMCITABINE],GI50,BXPC-3 [1],3.64 µM
same,TGI,BXPC-3 [1],9.05 µM
same,Activity,MIA PaCa-2 [2],537 mg
same,GI50,MIA PaCa-2 [3],35.8 µM
same,TGI,MIA PaCa-2 [3],100 µM
same,CC50,MIA PaCa-2 [3],100 µM
same,inhibition in vivo at 70 mg/kg,MIA PaCa-2 [4],56.2%
O=c1[nH]cc(F)c(=O)[nH]1 [FLUOROURACIL],GI50,IGROV-1,9.1 µM
same,TGI,IGROV-1,100 µM
same,CC50,IGROV-1; [13],100 µM
same,Activity,BXPC-3 [5],700%
same,GI50,BXPC-3 [1],8.2 µM
same,TGI,BXPC-3 [1],100 µM
same,GI50,MCF7,9.9 µM
same,TGI,MCF7,100 µM
same,CC50,MCF7,100 µM
same,GI50,NCI-H460,6.5 µM
same,TGI,NCI-H460,100 µM
same,GI50,DU-145,9.37 µM
same,TGI,DU-145,100 µM
same,CC50,DU-145; [13],100 µM
same,GI50,PC-3,21 µM
same,TGI,PC-3,100 µM
same,CC50,PC-3; [13],100 µM
same,GI50,DMS-114,100 µM
same,TGI,DMS-114,100 µM
same,CC50,DMS-114; [13],100 µM
same,LC50,HUVEC,100 µM
same,TGI,HUVEC,100 µM
same,GI50 at 48 h,[6],9.72 µM
same,GI50,NCI-H69,100 µM
same,TGI,NCI-H69,100 µM
same,CC50,NCI-H69; [13],100 µM
same,GI50,HCT-116,9.9 µM
same,TGI,HCT-116,100 µM
same,CC50,HCT-116,100 µM
same,GI50,H69AR,100 µM
same,TGI,H69AR,100 µM
same,CC50,H69AR; [13],100 µM
same,GI50,U-251,82 µM
same,TGI,U-251,100 µM
same,CC50,U-251; [13],100 µM
same,GI50,SF-295,76 µM
same,TGI,SF-295,100 µM
same,CC50,SF-295; [13],100 µM
same,GI50,MIA PaCa-2 [3],30 µM
same,TGI,MIA PaCa-2 [3],100 µM
same,CC50,MIA PaCa-2 [3],100 µM
same,GI50 at 48 h,[7]; MSC cells,8.92 µM
same,LC50,"[7]; msc, 48 h",100 µM
same,TGI,"[7]; msc, 48 h",86.06 µM
same,GI50,SK-HEP1,6.3 µM
same,TGI,SK-HEP1,100 µM
same,CC50,SK-HEP1; [13],100 µM
same,GI50,HCT-15,21 µM
same,TGI,HCT-15,100 µM
same,inhibition in vivo at 17 mg/kg,BXPC-3 [8],3.25%
same,GI50,HL-60(TB),100 µM
same,TGI,HL-60(TB),100 µM
same,GI50,OVCAR-5,20 µM
same,TGI,OVCAR-5,100 µM
same,CC50,OVCAR-5,100 µM
c1ccc(C(c2ccc(N3CCN(C4CCCCC4)CC3)cc2)C23CC4CC(CC(C4)C2)C3)cc1 (configuration not stated),IC50,[9],0.7 µM
same,GI50,BXPC-3 [1],8.58 µM
same,LC50,BXPC-3 [1],100 µM
same,TGI,BXPC-3 [1],76.8 µM
same,GI50,MCF7,8.7 µM
same,TGI,MCF7,55 µM
same,CC50,MCF7,100 µM
same,GI50,SF-268,53.1 µM
same,TGI,SF-268,99.8 µM
same,CC50,SF-268; [13],100 µM
same,GI50,NCI-H460,47.3 µM
same,LC50 (concentration killing 50% of cells),NCI-H460,100 µM
same,TGI,NCI-H460,100 µM
same,Ratio IC50,[10],360
same,IC50,[11],0.00027 µM
same,GI50,HCT-116,22.2 µM
same,TGI,HCT-116,100 µM
same,CC50,HCT-116,100 µM
same,GI50,MIA PaCa-2 [3],20.2 µM
same,TGI,MIA PaCa-2 [3],66.1 µM
same,CC50,MIA PaCa-2 [3],100 µM
same,IC50,[12],0.097 µM
same,GI50,OVCAR-5,55.4 µM
same,TGI,OVCAR-5,98.2 µM
same,CC50,OVCAR-5,100 µM
